Laboratory results from ChEMBL document CHEMBL1140791, “Design and identification of selective HER-2 sheddase inhibitors via P1' manipulation and unconventional P2' perturbations to induce a molecular metamorphosis” (Bioorg Med Chem Lett, 2008).
Activity calls are given as the source filed them. No cut-off for these calls is given here.

Columns and labels:
[1] = molecular target: T1, Disintegrin and metalloproteinase domain-containing protein 10 (Homo sapiens, UniProt O14672); experiment: (§1) Inhibition of HER2 sheddase in BT474 cells by extracellular domain shedding assay; type: cell-based, BT-474
T1 sequence (O14672 whole entry): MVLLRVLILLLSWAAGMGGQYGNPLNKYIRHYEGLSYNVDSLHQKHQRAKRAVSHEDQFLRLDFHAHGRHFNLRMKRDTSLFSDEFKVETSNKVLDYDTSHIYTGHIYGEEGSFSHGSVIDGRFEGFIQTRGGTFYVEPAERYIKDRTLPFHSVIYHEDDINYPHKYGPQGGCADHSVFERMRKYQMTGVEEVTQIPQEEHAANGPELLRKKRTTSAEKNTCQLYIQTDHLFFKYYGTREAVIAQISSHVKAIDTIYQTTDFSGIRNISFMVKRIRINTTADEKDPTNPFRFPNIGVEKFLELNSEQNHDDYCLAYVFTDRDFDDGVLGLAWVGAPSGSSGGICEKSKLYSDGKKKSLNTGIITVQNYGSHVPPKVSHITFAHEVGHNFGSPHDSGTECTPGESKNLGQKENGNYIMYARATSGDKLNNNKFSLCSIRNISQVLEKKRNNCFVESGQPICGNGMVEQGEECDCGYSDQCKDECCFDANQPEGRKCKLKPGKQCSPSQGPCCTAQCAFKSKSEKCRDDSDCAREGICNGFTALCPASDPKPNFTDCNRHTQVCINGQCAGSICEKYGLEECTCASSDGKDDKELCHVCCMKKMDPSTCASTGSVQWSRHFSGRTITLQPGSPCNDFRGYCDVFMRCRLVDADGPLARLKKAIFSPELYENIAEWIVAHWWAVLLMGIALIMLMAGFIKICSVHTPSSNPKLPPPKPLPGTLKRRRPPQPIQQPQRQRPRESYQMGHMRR

[2] = molecular target: T1, Disintegrin and metalloproteinase domain-containing protein 10; experiment: Binding affinity to ADAM10
Stromelysin-1 = Stromelysin-1 (Homo sapiens, UniProt P08254); experiment: Binding affinity to MMP3
Chain of Stromelysin-1 (P08254 whole entry): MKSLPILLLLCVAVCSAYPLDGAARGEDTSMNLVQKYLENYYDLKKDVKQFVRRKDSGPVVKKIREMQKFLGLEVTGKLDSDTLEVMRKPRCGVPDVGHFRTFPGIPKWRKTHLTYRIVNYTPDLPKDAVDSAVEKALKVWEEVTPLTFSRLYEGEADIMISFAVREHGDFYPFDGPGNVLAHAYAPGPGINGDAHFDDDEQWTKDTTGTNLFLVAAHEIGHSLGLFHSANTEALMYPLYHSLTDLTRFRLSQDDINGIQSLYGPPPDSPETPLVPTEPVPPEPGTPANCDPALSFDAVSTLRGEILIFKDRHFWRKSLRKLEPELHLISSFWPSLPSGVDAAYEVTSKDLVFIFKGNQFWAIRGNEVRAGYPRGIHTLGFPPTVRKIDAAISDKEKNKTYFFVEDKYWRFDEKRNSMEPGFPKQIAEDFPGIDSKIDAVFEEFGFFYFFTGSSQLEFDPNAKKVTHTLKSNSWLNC

[3] = Selectivity for ADAM10 over MMP3
[4] = Selectivity for ADAM10 over MMP9
[5] = Selectivity for ADAM10 over MMP2
[6] = molecular target: 72 kDa type IV collagenase (Homo sapiens, UniProt P08253); experiment: Binding affinity to MMP2
Chain of 72 kDa type IV collagenase (P08253 whole entry): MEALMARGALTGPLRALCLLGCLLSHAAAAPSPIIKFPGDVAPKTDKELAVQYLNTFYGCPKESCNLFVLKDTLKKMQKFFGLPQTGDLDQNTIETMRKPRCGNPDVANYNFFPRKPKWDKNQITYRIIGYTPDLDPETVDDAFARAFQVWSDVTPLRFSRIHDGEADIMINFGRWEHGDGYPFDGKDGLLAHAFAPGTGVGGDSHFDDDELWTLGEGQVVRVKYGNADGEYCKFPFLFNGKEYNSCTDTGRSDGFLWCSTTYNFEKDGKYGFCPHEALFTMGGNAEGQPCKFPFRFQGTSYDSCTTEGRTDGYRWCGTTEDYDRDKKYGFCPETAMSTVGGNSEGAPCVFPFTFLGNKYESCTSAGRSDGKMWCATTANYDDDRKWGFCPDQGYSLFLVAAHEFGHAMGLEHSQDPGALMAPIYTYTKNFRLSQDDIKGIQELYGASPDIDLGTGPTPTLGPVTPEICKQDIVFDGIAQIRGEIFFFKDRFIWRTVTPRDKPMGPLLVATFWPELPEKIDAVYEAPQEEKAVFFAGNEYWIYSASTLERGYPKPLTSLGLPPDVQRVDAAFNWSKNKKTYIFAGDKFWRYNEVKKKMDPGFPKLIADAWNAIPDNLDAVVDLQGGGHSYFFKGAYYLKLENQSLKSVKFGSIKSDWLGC

[7] = molecular target: Matrix metalloproteinase-9 (Homo sapiens, UniProt P14780); experiment: Binding affinity to MMP9
Chain of Matrix metalloproteinase-9 (P14780 whole entry): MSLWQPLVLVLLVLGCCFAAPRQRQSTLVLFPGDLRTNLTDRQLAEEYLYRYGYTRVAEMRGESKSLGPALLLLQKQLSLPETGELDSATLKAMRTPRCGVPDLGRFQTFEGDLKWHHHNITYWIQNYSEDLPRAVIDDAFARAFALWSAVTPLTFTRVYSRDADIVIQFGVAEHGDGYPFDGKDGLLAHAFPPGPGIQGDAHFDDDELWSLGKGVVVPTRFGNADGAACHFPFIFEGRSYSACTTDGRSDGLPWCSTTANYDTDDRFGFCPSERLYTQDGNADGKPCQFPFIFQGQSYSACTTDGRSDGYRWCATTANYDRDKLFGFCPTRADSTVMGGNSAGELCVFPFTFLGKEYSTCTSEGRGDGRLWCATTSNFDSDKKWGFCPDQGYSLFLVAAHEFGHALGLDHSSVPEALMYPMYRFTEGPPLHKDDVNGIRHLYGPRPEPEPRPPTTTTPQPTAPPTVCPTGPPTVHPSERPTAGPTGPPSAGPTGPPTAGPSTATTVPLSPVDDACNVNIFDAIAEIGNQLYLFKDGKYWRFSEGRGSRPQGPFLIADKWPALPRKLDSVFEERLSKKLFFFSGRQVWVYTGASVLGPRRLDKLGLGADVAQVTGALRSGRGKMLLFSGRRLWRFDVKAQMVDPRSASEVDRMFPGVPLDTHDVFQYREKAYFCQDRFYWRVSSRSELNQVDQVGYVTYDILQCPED

Interstitial collagenase = molecular target: T2, Interstitial collagenase (Homo sapiens, UniProt P03956); experiment: Binding affinity to MMP1
T2 sequence (P03956 whole entry): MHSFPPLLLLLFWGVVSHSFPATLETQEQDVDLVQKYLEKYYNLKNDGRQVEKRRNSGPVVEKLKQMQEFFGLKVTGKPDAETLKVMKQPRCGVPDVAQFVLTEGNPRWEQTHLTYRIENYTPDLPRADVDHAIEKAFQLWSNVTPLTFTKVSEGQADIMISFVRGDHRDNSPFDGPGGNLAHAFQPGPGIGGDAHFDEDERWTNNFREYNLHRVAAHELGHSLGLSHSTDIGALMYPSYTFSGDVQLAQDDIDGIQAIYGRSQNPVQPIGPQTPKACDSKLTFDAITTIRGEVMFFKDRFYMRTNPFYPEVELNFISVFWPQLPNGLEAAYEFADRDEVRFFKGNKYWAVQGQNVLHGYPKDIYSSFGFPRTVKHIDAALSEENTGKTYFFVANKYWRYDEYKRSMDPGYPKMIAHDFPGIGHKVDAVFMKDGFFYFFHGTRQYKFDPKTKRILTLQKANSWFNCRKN

[8] = AUC (0 to 24 hrs) in mouse at 10 mg/kg, po; type: ADME, organism-based; design: time < 24 hr, dose 10 mg/kg, route oral; details: plasma
[9] = Cmax in mouse at 10 mg/kg, po; type: ADME, organism-based; design: dose 10 mg/kg, route oral; details: in vivo
[10] = Half life in mouse; type: ADME, organism-based; details: in vivo
Plasma = experiment: Protein binding in human plasma assessed as unbound fraction; type: ADME, cell-free
[11] = Selectivity for ADAM10 over MMP1
[12] = molecular target: T3, Disintegrin and metalloproteinase domain-containing protein 10 (Homo sapiens) (UniProt O14672); experiment: as §1; type: cell-based; details: BT-474
T3 sequence (whole entry): T1 sequence (O14672 whole entry)

Row | SMILES | IC50 [1] [nM] | IC50 [2] [nM] | IC50 (Stromelysin-1) [nM] | IC50 [6] [nM] | IC50 [7] [nM] | IC50 (Interstitial collagenase) [nM] | further results
1 | O=C(NO)[C@H]1CC2(CC2)CN[C@@H]1C(=O)N1CCC(c2ccccc2)CC1 | 137 |  |  |  |  |  | 
2 | CC(C)c1cccc(C2=CCN(C(=O)[C@H]3NCC4(CC4)C[C@@H]3C(=O)NO)CC2)c1 | 229 | 73 | 5000 | 1100 | 2500 | > 5000 | Ratio IC50 [3]: 2; Ratio IC50 [4]: 10; Ratio IC50 [5]: > 15
3 | COC(=O)N1CC2(CC2)C[C@H](C(=O)NO)[C@H]1C(=O)N1CC=C(c2ccccc2)C1 | 34 | 26 | > 5000 | 488 | 3050 | > 5000 | AUC(0-t) at 24 h [8]: 2.8 µM·h; Ratio IC50 [3]: 11; Cmax [9]: 3000 nM; Ratio IC50 [4]: 40; half-life [10]: 1.8 h; Ratio IC50 [5]: 37; PPB (Plasma): 34%; Ratio IC50 [11]: 2
4 | COC(=O)N1CC2(CC2)C[C@H](C(=O)NO)[C@H]1C(=O)N1CCC(c2ccccc2)CC1 | 169 | 19 |  | 472 |  |  | 
5 | Cc1cc(C)cc(C2=CCN(C(=O)[C@H]3NCC4(CC4)C[C@@H]3C(=O)NO)CC2)c1 | 86 | 85 | > 5000 | 433 | > 5000 | > 5000 | 
6 | Cc1cccc(C2=CCN(C(=O)[C@H]3NCC4(CC4)C[C@@H]3C(=O)NO)CC2)c1 | 42 | 25 | 359 | 13 | 111 | 1890 | 
7 | CC(=O)N1CC2(CC2)C[C@H](C(=O)NO)[C@H]1C(=O)N1CC=C(c2ccccc2)CC1 | 72 | 40 | > 5000 | 50 | 160 | > 5000 | 
8 | CC(C)c1cc(C2=CCN(C(=O)[C@H]3NCC4(CC4)C[C@@H]3C(=O)NO)CC2)ccc1C#N | 902 | 154 |  | 2500 |  |  | 
9 | O=C(NO)[C@H]1CC2(CC2)CN[C@@H]1C(=O)N1CC=C(c2ccccc2)C1 | 13 |  |  |  |  |  | 
10 | CCc1cccc(C2=CCN(C(=O)[C@H]3NCC4(CC4)C[C@@H]3C(=O)NO)CC2)c1 | 240 | 33 |  | 21 | 190 | > 5000 | 
11 | CS(=O)(=O)N1CC2(CC2)C[C@H](C(=O)NO)[C@H]1C(=O)N1CC=C(c2ccccc2)CC1 | 93 | 51 | > 5000 | 53 | 677 | > 5000 | 
12 | Cc1cccc(C2CCN(C(=O)[C@H]3NCC4(CC4)C[C@@H]3C(=O)NO)CC2)c1 | 689 | 194 | > 5000 | 391 | 604 | > 5000 | 
13 | COC(=O)N1CC2(CC2)C[C@H](C(=O)NO)[C@H]1C(=O)N1CCC(c2ccccc2)C1 (some centres undefined) | 289 | 81 |  | > 5000 |  |  | 
14 | CC(C)c1cccc(N2CCN(C(=O)[C@H]3NCC4(CC4)C[C@@H]3C(=O)NO)CC2)c1 |  | 1100 |  | > 5000 |  | > 5000 | Activity [12]: inactive
15 | O=C(NO)[C@H]1CC2(CC2)CN(C(=O)OCc2ccccc2)[C@@H]1C(=O)N1CC=C(c2ccccc2)CC1 | 431 | 34 | 1670 | 37 | 309 | > 5000 | 
16 | O=C(NO)[C@H]1CC2(CC2)CN[C@@H]1C(=O)N1CC=C(c2cc(F)cc(F)c2)CC1 | 24 | 15 | > 5000 | 14 | 916 | > 5000 | 
17 | CS(=O)(=O)N1CC2(CC2)C[C@H](C(=O)NO)[C@H]1C(=O)N1CCN(c2ccccc2)CC1 | 45 | 27 | > 5000 | 86 | 1500 | > 5000 | 
18 | CC(C)COC(=O)N1CC2(CC2)C[C@H](C(=O)NO)[C@H]1C(=O)N1CC=C(c2ccccc2)CC1 | 150 | 19 | 2600 | 35 | 451 | > 5000 | 
19 | COc1cccc(C2=CCN(C(=O)[C@H]3NCC4(CC4)C[C@@H]3C(=O)NO)CC2)c1 | 194 | 40 |  | 50 | 110 | > 5000 | 
20 | Cc1cccc(N2CCN(C(=O)[C@H]3NCC4(CC4)C[C@@H]3C(=O)NO)CC2)c1 | 184 | 187 | > 1000 | 63 | 1270 | > 5000 | 
21 | O=C(NO)[C@H]1CC2(CC2)CN[C@@H]1C(=O)N1CCC(c2ccccc2)C1 (some centres undefined) |  |  | > 3000 | 960 | > 3000 | > 5000 | 
22 | O=C(NO)[C@H]1CC2(CC2)CN(C(=O)OC2CCOCC2)[C@@H]1C(=O)N1CCN(c2ccccc2)CC1 | 26 | 37 | 4000 | 106 | 2620 | > 5000 | 
23 | O=C(NO)[C@H]1CC2(CC2)CN[C@@H]1C(=O)N1CC=C(c2cccc(C3CC3)c2)CC1 |  | 48 |  | 24 |  |  | 
24 | CC(C)c1cccc(C2CCN(C(=O)[C@H]3NCC4(CC4)C[C@@H]3C(=O)NO)CC2)c1 | 139 | 16 | > 5000 | 1390 |  |  | 
25 | Cc1cc(N2CCN(C(=O)[C@H]3NCC4(CC4)C[C@@H]3C(=O)NO)CC2)ccc1C#N | 594 | 38 |  | < 5 |  |  | 
26 | O=C(NO)[C@H]1CC2(CC2)CN[C@@H]1C(=O)N1CC=C(c2cc(Cl)cc(Cl)c2)CC1 |  | 99 |  | 5000 |  |  | Activity [12]: inactive
27 | Cc1cc(C2=CCN(C(=O)[C@H]3NCC4(CC4)C[C@@H]3C(=O)NO)CC2)cc(C)c1C#N | 129 | 28 | 3500 | 159 | > 5000 | > 5000 | 
28 | O=C(NO)[C@H]1CC2(CC2)CN[C@@H]1C(=O)N1CCN(c2cccc(Cl)c2)CC1 | 42 | 14 |  | 32 |  |  | 
